Columns and labels:
Assay in all cases: KINOMEscan kinase binding assay (Eurofins/DiscoveRx), % Ctrl
Details in all cases: 1 μM
kinases [1] = biological target: T1, kinases (Homo sapiens, UniProt P16234)
T1 construct: purchased Eurofins/DiscoveRx; host or cells: E. coli BL21-derived host (T7 phage display) for most kinases; HEK-293 for the rest
How it was run: (§1)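 Competition binding, 1 h RT: phage-tagged or HEK-293-expressed DNA-tagged kinase + immobilized ligand + compound. Eluate kinase by qPCR. % Ctrl = (test − positive ctrl)/(negative ctrl − positive ctrl) × 100; lower means stronger binding.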

kinases [2] = biological target: T2, kinases (Homo sapiens, UniProt P00519, E255K)
T2 construct: purchased Eurofins/DiscoveRx; host or cells: E. coli BL21-derived host (T7 phage display) for most kinases; HEK-293 for the rest
How it was run: as §1

kinases [3] = biological target: T3, kinases (Homo sapiens, UniProt P42684)
T3 construct: purchased Eurofins/DiscoveRx; host or cells: E. coli BL21-derived host (T7 phage display) for most kinases; HEK-293 for the rest
T3 sequence (P42684 whole entry): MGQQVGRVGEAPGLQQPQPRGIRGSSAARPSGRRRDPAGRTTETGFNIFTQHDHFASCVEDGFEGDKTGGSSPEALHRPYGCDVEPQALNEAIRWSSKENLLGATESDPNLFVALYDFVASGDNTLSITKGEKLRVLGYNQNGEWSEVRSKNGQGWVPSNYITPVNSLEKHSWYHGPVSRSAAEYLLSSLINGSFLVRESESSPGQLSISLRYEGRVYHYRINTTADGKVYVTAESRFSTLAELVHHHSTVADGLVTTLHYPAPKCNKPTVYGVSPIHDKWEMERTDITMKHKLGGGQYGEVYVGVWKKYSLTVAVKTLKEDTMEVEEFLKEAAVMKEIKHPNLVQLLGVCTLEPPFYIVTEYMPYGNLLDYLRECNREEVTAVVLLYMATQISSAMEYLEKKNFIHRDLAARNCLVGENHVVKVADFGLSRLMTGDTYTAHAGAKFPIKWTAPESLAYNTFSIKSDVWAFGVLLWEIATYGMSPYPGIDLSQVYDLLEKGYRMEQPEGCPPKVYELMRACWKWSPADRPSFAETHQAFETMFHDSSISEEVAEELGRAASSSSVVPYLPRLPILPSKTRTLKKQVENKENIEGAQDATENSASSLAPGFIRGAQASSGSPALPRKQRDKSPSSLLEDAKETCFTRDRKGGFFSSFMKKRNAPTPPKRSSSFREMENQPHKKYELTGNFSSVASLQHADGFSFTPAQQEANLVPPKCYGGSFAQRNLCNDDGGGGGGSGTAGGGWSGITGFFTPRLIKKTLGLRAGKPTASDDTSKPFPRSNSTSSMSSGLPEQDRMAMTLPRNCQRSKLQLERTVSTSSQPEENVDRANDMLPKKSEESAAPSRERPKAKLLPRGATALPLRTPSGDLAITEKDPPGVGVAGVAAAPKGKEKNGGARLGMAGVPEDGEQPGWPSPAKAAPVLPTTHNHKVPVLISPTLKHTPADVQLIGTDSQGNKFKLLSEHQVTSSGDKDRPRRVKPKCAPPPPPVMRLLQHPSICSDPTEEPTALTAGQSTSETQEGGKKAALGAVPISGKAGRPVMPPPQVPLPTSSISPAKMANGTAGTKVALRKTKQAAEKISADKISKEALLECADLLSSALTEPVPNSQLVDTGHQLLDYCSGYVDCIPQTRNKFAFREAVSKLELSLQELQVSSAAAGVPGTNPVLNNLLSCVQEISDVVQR
How it was run: as §1

kinases [4] = biological target: T4, kinases (Homo sapiens, UniProt P00533, L861Q)
T4 construct: purchased Eurofins/DiscoveRx; host or cells: E. coli BL21-derived host (T7 phage display) for most kinases; HEK-293 for the rest
How it was run: as §1

kinases [5] = biological target: T5, kinases (Homo sapiens, UniProt P10721, D816H)
T5 construct: purchased Eurofins/DiscoveRx; host or cells: E. coli BL21-derived host (T7 phage display) for most kinases; HEK-293 for the rest
T5 sequence (P10721 26-976 D816H): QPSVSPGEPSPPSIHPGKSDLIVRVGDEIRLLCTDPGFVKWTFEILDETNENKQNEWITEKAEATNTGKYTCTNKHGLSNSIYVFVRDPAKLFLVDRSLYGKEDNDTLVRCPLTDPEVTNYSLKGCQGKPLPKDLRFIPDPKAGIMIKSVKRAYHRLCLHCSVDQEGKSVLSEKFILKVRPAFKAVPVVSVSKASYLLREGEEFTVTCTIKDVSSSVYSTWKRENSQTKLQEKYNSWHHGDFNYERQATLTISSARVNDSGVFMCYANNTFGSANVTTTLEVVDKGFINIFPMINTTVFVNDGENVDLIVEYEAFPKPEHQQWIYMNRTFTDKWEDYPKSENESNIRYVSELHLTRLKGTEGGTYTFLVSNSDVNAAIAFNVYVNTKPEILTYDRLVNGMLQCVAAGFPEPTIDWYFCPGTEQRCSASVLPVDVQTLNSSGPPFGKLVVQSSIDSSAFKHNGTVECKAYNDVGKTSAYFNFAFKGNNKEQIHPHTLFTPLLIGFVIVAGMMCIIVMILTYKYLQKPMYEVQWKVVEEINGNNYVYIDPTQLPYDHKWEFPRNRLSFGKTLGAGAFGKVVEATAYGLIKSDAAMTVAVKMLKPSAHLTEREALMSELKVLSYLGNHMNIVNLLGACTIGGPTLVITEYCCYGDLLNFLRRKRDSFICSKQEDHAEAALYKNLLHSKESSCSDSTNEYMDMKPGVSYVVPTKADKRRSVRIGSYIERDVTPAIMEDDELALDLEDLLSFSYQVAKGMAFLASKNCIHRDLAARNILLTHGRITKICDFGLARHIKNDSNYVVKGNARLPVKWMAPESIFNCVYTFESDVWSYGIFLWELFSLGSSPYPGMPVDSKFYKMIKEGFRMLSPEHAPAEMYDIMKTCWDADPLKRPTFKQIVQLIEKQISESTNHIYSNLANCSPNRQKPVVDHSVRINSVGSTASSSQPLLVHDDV
How it was run: as §1

kinases [6] = biological target: T6, kinases (Homo sapiens, UniProt P07949)
T6 construct: purchased Eurofins/DiscoveRx; host or cells: E. coli BL21-derived host (T7 phage display) for most kinases; HEK-293 for the rest
T6 sequence (P07949 29-1114): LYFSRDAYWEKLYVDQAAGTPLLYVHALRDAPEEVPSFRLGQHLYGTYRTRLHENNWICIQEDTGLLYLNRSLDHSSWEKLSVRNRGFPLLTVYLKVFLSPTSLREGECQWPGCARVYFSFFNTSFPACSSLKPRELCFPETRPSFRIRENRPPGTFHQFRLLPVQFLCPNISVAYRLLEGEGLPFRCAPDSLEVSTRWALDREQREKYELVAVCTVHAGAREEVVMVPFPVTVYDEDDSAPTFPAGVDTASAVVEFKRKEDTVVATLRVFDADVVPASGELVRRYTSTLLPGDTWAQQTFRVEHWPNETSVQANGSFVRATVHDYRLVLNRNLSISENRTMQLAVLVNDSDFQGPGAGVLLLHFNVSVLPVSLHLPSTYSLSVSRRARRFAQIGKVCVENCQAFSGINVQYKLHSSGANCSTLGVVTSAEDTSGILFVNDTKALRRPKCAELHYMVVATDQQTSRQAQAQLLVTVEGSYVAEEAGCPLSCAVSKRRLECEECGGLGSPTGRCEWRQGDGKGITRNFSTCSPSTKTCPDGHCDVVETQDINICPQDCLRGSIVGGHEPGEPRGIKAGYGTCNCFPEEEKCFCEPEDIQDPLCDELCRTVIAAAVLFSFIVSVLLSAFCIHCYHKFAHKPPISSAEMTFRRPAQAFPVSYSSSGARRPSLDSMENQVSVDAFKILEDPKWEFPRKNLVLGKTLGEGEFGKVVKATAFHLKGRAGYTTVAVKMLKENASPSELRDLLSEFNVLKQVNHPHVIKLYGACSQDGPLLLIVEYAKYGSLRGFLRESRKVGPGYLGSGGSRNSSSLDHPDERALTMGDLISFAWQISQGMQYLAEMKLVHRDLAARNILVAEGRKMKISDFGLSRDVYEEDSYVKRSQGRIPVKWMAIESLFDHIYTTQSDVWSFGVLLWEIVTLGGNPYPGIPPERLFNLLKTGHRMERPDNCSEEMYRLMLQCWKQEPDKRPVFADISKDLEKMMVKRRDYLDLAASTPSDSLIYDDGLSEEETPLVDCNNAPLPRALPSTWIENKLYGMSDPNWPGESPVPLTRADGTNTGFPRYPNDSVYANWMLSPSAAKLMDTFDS
How it was run: as §1

kinases [7] = biological target: T7, kinases (Homo sapiens, UniProt P00519, Q252H)
T7 construct: purchased Eurofins/DiscoveRx; host or cells: E. coli BL21-derived host (T7 phage display) for most kinases; HEK-293 for the rest
How it was run: as §1

kinases [8] = biological target: T8, kinases (Homo sapiens, UniProt P10721, V559D)
T8 construct: purchased Eurofins/DiscoveRx; host or cells: E. coli BL21-derived host (T7 phage display) for most kinases; HEK-293 for the rest
T8 sequence (P10721 26-976 V559D): as the sequence (P10721 26-976 D816H) above, with V534D, H791D counted along it
How it was run: as §1

kinases [9] = biological target: T9, kinases (Homo sapiens, UniProt P00519, T315I)
T9 construct: purchased Eurofins/DiscoveRx; host or cells: E. coli BL21-derived host (T7 phage display) for most kinases; HEK-293 for the rest
How it was run: as §1

kinases [10] = biological target: T10, kinases (Homo sapiens, UniProt P07949, M918T)
T10 construct: purchased Eurofins/DiscoveRx; host or cells: E. coli BL21-derived host (T7 phage display) for most kinases; HEK-293 for the rest
T10 sequence (P07949 29-1114 M918T): as the sequence (P07949 29-1114) above, with M890T counted along it
How it was run: as §1

kinases [11] = biological target: T11, kinases (Homo sapiens, UniProt P36888)
T11 construct: purchased Eurofins/DiscoveRx; host or cells: E. coli BL21-derived host (T7 phage display) for most kinases; HEK-293 for the rest
T11 sequence (P36888 27-993): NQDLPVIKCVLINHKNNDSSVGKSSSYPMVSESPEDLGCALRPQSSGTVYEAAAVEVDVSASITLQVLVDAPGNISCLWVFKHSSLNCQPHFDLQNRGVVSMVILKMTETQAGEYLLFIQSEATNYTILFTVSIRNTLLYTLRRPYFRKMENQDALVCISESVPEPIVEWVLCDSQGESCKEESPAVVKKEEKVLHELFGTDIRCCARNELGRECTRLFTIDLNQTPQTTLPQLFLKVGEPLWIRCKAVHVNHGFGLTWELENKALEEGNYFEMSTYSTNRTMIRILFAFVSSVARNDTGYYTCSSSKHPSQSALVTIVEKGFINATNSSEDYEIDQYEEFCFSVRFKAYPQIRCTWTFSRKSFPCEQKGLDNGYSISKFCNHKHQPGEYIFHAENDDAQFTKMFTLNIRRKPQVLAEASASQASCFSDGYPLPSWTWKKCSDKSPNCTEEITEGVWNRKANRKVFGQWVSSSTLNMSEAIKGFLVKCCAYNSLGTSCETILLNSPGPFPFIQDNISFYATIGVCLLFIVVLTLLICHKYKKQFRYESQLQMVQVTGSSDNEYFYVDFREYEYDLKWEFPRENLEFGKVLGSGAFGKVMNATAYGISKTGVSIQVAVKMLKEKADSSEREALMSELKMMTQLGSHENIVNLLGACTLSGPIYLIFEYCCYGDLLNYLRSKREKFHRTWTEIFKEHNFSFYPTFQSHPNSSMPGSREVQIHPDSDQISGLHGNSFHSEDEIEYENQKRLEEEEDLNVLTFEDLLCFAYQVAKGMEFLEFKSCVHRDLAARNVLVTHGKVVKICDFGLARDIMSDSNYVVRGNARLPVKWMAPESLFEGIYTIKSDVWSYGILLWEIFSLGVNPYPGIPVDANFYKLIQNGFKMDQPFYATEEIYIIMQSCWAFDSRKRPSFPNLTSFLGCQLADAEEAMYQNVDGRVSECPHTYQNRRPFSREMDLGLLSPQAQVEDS
How it was run: as §1

kinases [12] = biological target: T12, kinases (Homo sapiens, UniProt P00533, DEL752-759)
T12 construct: purchased Eurofins/DiscoveRx; host or cells: E. coli BL21-derived host (T7 phage display) for most kinases; HEK-293 for the rest
How it was run: as §1

kinases [13] = biological target: T13, kinases (Homo sapiens, UniProt P00519)
T13 construct: purchased Eurofins/DiscoveRx; host or cells: E. coli BL21-derived host (T7 phage display) for most kinases; HEK-293 for the rest
How it was run: as §1

T1 sequence (P16234 24-1089): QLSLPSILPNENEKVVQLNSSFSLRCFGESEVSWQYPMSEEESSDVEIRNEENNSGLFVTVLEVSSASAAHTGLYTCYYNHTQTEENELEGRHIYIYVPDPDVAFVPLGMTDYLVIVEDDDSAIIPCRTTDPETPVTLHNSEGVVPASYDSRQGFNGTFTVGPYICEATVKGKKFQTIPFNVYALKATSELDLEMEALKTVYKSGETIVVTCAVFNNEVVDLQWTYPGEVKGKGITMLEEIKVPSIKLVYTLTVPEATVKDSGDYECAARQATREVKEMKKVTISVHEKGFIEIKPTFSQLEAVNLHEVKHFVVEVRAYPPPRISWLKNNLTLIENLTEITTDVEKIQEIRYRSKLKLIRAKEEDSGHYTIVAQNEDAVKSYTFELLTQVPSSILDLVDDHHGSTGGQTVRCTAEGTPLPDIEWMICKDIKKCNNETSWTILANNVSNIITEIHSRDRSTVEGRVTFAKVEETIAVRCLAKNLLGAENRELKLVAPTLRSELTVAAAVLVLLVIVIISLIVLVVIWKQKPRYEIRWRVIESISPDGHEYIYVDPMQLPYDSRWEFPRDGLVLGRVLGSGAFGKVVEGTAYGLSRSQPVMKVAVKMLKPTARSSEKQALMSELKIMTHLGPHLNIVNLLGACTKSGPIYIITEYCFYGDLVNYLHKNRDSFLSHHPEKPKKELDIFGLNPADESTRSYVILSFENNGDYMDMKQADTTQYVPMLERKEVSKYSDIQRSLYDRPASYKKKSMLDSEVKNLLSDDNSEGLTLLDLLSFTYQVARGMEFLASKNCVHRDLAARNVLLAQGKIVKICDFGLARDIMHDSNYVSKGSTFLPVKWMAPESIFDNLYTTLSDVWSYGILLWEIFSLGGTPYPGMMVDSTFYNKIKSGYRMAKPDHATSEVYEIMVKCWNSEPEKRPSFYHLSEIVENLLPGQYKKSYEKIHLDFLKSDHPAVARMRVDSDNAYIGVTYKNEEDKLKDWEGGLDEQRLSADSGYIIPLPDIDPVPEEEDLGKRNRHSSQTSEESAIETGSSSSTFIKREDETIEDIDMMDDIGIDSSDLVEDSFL

% Ctrl, PDGFRA (kinases [1]; PDGFRA) [% Ctrl] | % Ctrl, ABL1(E255K)-phosphorylated (kinases [2]; ABL1(E255K)-phosphorylated) [% Ctrl] | % Ctrl, ABL2 (kinases [3]; ABL2) [% Ctrl] | % Ctrl, EGFR(L861Q) (kinases [4]; EGFR(L861Q)) [% Ctrl] | % Ctrl, KIT(D816H) (kinases [5]; KIT(D816H)) [% Ctrl] | % Ctrl, RET (kinases [6]; RET) [% Ctrl] | % Ctrl, ABL1(Q252H)-nonphosphorylated (kinases [7]; ABL1(Q252H)-nonphosphorylated) [% Ctrl] | % Ctrl, ABL1(Q252H)-phosphorylated (kinases [7]; ABL1(Q252H)-phosphorylated) [% Ctrl] | % Ctrl, KIT(V559D) (kinases [8]; KIT(V559D)) [% Ctrl] | % Ctrl, ABL1(T315I)-nonphosphorylated (kinases [9]; ABL1(T315I)-nonphosphorylated) [% Ctrl] | % Ctrl, ABL1(T315I)-phosphorylated (kinases [9]; ABL1(T315I)-phosphorylated) [% Ctrl] | % Ctrl, RET(M918T) (kinases [10]; RET(M918T)) [% Ctrl] | % Ctrl, FLT3 (kinases [11]; FLT3) [% Ctrl] | % Ctrl, FLT3-autoinhibited (kinases [11]; FLT3-autoinhibited) [% Ctrl] | % Ctrl, EGFR(S752-I759del) (kinases [12]; EGFR(S752-I759del)) [% Ctrl] | % Ctrl, ABL1-nonphosphorylated (kinases [13]; ABL1-nonphosphorylated) [% Ctrl] | % Ctrl, ABL1-phosphorylated (kinases [13]; ABL1-phosphorylated) [% Ctrl] | further results | SMILES
– | – | – | – | – | – | – | – | – | – | – | – | – | – | – | – | – | % Ctrl, PDGFRA (kinases [1]; target PDGFRA): 50 % Ctrl; % Ctrl, ABL1(E255K)-phosphorylated (kinases [2]; target ABL1(E255K)-phosphorylated): 2.6 % Ctrl; % Ctrl, ABL2 (kinases [3]; target ABL2): 58 % Ctrl; % Ctrl, EGFR(L861Q) (kinases [4]; target EGFR(L861Q)): 58 % Ctrl; % Ctrl, KIT(D816H) (kinases [5]; target KIT(D816H)): 18 % Ctrl; % Ctrl, RET (kinases [6]; target RET): 4.2 % Ctrl; % Ctrl, ABL1(Q252H)-nonphosphorylated (kinases [7]; target ABL1(Q252H)-nonphosphorylated): 2.8 % Ctrl; % Ctrl, ABL1(Q252H)-phosphorylated (kinases [7]; target ABL1(Q252H)-phosphorylated): 1.7 % Ctrl; % Ctrl, KIT(V559D) (kinases [8]; target KIT(V559D)): 55 % Ctrl; % Ctrl, ABL1(T315I)-nonphosphorylated (kinases [9]; target ABL1(T315I)-nonphosphorylated): 1.6 % Ctrl; % Ctrl, ABL1(T315I)-phosphorylated (kinases [9]; target ABL1(T315I)-phosphorylated): 2.6 % Ctrl; % Ctrl, RET(M918T) (kinases [10]; target RET(M918T)): 0.6 % Ctrl; % Ctrl, FLT3-autoinhibited (kinases [11]; target FLT3-autoinhibited): 10 % Ctrl; % Ctrl, FLT3 (kinases [11]; target FLT3): 11 % Ctrl; % Ctrl, EGFR(S752-I759del) (kinases [12]; target EGFR(S752-I759del)): 84 % Ctrl; % Ctrl, ABL1-nonphosphorylated (kinases [13]; target ABL1-nonphosphorylated): 10 % Ctrl; % Ctrl, ABL1-phosphorylated (kinases [13]; target ABL1-phosphorylated): 6 % Ctrl | Cc1cc2c([nH]1)/C=C1\C(=O)Nc3cnc(cc31)-c1cn[nH]c1CNCCN(C)C2=O [Ex. 55, [3a(4)Z]-6,9-dimethyl-9,10,11,12,13,14-hexahydro-17,1-(azenometheno)pyrazolo[4,3-m]dipyrrolo[3,2-f:3′,4′-i][1,4]diazacyclopentadecine-3,8(2,5H)-dione]
95 | 22 | 43 | 100 | 87 | 63 | 0 | 34 | 91 | 12 | 66 | 59 | 77 | 96 | 90 | 0 | 25 | – | Cc1cc2c([nH]1)/C=C1\C(=O)Nc3ccc(cc31)O[C@@H](C)COCCN(C)C2=O [Ex. 92, [10S,16a(17)Z]-2,5,10-trimethyl-6,7,9,10-tetrahydro-1H-12,14-(ethanediylidene)dipyrrolo[3,2-i:3′,4′-l][1,4,7]dioxazacyclopentadecine-4,16(5H,15H)-dione]
7.9 | 0 | 2.4 | 81 | 0.4 | 0 | 0 | 0 | 36 | 0 | 0.1 | 0 | 0.15 | 0.35 | 68 | 0 | 0 | – | Cc1cc2c([nH]1)/C=C1\C(=O)Nc3ccc(cc31)-c1cnn(C)c1COCCN(C)C2=O [Ex. 124, [3a(4)Z]-6,9,14-trimethyl-10,11,13,14-tetrahydro-2H-1,17-(ethanediylidene)pyrazolo[4,3-m]dipyrrolo[3,2-f:3′,4′-i][1,4]oxazacyclopentadecine-3,8(5H,9H)-dione]
7.7 | 0.05 | 2.2 | 77 | 0.65 | 0 | 0 | 0.05 | 35 | 0 | 0.1 | 0 | 0.45 | 0.15 | 73 | 0 | 0 | – | Cc1cc2c([nH]1)/C=C1\C(=O)Nc3ccc(cc31)-c1cnn(C)c1CNCCN(C)C2=O [Ex. 125, [3a(4)Z]-6,9,14-trimethyl-9,10,11,12,13,14-hexahydro-1,17-(ethanediylidene)pyrazolo[4,3-m]dipyrrolo[3,2-f:3′,4′-i][1,4]diazacyclopentadecine-3,8(2H,5H)-dione]
1.2 | 0.55 | 0.9 | 50 | 0 | 0 | 1.7 | 0.75 | 1.4 | 0 | 0 | 0 | 0.2 | 0.25 | 32 | 0 | 0.1 | – | Cc1cc2c([nH]1)/C=C1\C(=O)Nc3ccc(cc31)-c1cnn(C)c1CN(C)CCN(C)C2=O [Ex. 126, [3a(4)Z]-6,9,12,14-tetramethyl-9,10,11,12,13,14-hexahydro-1,17-(ethanediylidene)pyrazolo[4,3-m]dipyrrolo[3,2-f:3′,4′-i][1,4]diazacyclopentadecine-3,8(2H,5H)-dione]

Reference: patent US20230257396A1, “MACROCYCLES AND THEIR USE” (BLOSSOMHILL THERAPEUTICS, INC., priority 2020, published 2023)
